20 compounds from patent US20250228239A1, “MOLECULES HAVING PESTICIDAL UTILITY, AND INTERMEDIATES, COMPOSITIONS, AND PROCESSES, RELATED THERETO” (priority 2024, published 2025) can be followed below.

Read-outs that look alike come from different tables or passages of the source.

In assay [1] the test system is Cabbage Looper (Trichoplusia ni, TRIPNI). The assay can be described thus: Bioassays on Cabbage Looper (CL), 128-well diet tray assay. It is filed as in vivo. Conditions: Trichoplusia ni. The procedure, abridged:
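One to five second-instar larvae per well on artificial diet surface-treated with 50 μg/cm^2 test molecule (applied in 90:10 acetone-water, dried). Held 5–7 days at 25° C, 14:10 light-dark; percent mortality recorded per well and averaged over eight wells.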

In assay [2] the test system is Beet Armyworm (Spodoptera exigua, LAPHEG). The assay can be described thus: Bioassays on Beet Armyworm (BAW), 128-well diet tray assay. It is filed as in vivo. Conditions: Spodoptera exigua. The gist of the method:
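Diet-overlay assay: 50 μg/cm^2 compound applied in 90:10 acetone-water to artificial diet, allowed to dry, then infested with 1–5 L2 larvae/well; 8 wells/compound; covered, vented; 25° C., 14:10 L:D, 5–7 d; % mortality per well, averaged.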

[3] abbreviates: Cabbage Looper, Table ABC / ABC-DP rating, read-out: CL rating.
Setting [4] is: Beet Armyworm, Table ABC / ABC-DP rating, read-out: BAW rating.
The mark [5] stands for this setting: Table ABC: Biological Results, species CL, read-out: CL.
Setting [6] is: Table ABC: Biological Results, species BAW, read-out: BAW.
Where [7] appears, read: Cabbage Looper, rating class, read-out: CL.
[8] abbreviates: Beet Armyworm, rating class, read-out: BAW.

For `O=C(NCCCCl)c1cc(NC(=O)[C@H]2[C@H](c3ccc(F)c(Cl)c3)C2(Cl)Cl)cc(Cl)c1F` (relative stereo) [F2048, trans-3-Chloro-N-(3-chloropropyl)-5-(2,2-dichloro-3-(3-chloro-4-fluorophenyl)cyclopropane-1-carboxamido)-2-fluorobenzamide], the pest or weed control at 50 µg/cm2 in assay [1] (setting [3]) and in assay [2] (setting [4]) was 50 to 100% throughout.

As for `Cc1c(F)cc(NC(=O)[C@H]2[C@H](c3ccc(F)c(Cl)c3)C2(Cl)Cl)cc1C(=O)Nc1ccc(F)c(N)c1F` (relative stereo) [F1286, trans-N-(3-Amino-2,4-difluorophenyl)-5-(2,2-dichloro-3-(3-chloro-4-fluorophenyl)cyclopropane-1-carboxamido)-3-fluoro-2-methylbenzamide], the pest or weed control at 50 µg/cm2 in assay [1] (setting [5]) and in assay [2] (setting [6]) was 50 to 100% throughout.

For `O=C(Nc1c(F)ccc(NC(=O)c2cc(NC(=O)[C@H]3[C@H](c4cc(Cl)c(Cl)c(Cl)c4)C3(Cl)Cl)ccc2Cl)c1F)c1ccco1` [F1648, N-(3-(2-Chloro-5-((1R,3R)-2,2-dichloro-3-(3,4,5-trichlorophenyl)cyclopropane-1-carboxamido)benzamido)-2,6-difluorophenyl)furan-2-carboxamide], the pest or weed control at 50 µg/cm2 in assay [1] (setting [7]) and in assay [2] (setting [8]) was 50 to 100% throughout.

As for `O=C(Nc1ccc(F)c(NC(=O)C2CCCO2)c1F)c1cc(NC(=O)[C@H]2[C@H](c3cccc(C(F)(F)F)c3)C2(Cl)Cl)ccc1Cl` (stereo partly drawn) [F1676, N-(3-(2-Chloro-5-((1R,3R)-2,2-dichloro-3-(3-(trifluoromethyl)phenyl)cyclopropane-1-carboxamido)benzamido)-2,6-difluorophenyl)tetrahydrofuran-2-carboxamide], the pest or weed control at 50 µg/cm2 in assay [1] (setting [7]) and in assay [2] (setting [8]) was 50 to 100% each time.

Turning to `O=C(Nc1ccc(F)c(NC(=O)C(F)(F)C(F)C(F)(F)F)c1F)c1cc(NC(=O)[C@H]2[C@H](c3ccc(F)c(C(F)(F)F)c3)C2(Cl)Cl)ccc1Cl` (stereo partly drawn) [F1839, 2-Chloro-5-((1R,3R)-2,2-dichloro-3-(4-fluoro-3-(trifluoromethyl)phenyl)cyclopropane-1-carboxamido)-N-(2,4-difluoro-3-(2,2,3,4,4,4-hexafluorobutanamido)phenyl)benzamide], the pest or weed control at 50 µg/cm2 in assay [1] (setting [3]) and in assay [2] (setting [4]) was 50 to 100% each time.

In the case of `CC(C)(C)OC(=O)Nc1c(F)ccc(NC(=O)c2cc(NC(=O)[C@H]3[C@H](c4cc(F)cc(C(F)(F)F)c4)C3(Cl)Cl)ccc2Cl)c1F` (relative stereo) [F1092, trans-tert-Butyl-(3-(2-chloro-5-(2,2-dichloro-3-(3-fluoro-5-(trifluoromethyl)phenyl)cyclopropane-1-carboxamido)benzamido)-2,6-difluorophenyl)carbamate], the pest or weed control at 50 µg/cm2 in assay [1] (setting [5]) and in assay [2] (setting [6]) was 50 to 100% throughout.

For `Nc1cc(F)c(NC(=O)c2cc(NC(=O)[C@H]3[C@H](c4ccc(Cl)c(Cl)c4)C3(Cl)Cl)ccc2Cl)c(F)c1` [F1028, N-(4-Amino-2,6-difluorophenyl)-2-chloro-5-((1R,3R)-2,2-dichloro-3-(3,4-dichlorophenyl)cyclopropane-1-carboxamido)benzamide], the pest or weed control at 50 µg/cm2 in assay [1] (setting [5]) and in assay [2] (setting [6]) was 50 to 100% throughout.

As to `COc1ccc(C(=O)Nc2c(F)ccc(NC(=O)c3cc(NC(=O)[C@H]4[C@H](c5ccc(F)c(C(F)(F)F)c5)C4(Cl)Cl)ccc3Cl)c2F)cc1` [F1205, 2-Chloro-5-((1R,3R)-2,2-dichloro-3-(4-fluoro-3-(trifluoromethyl)phenyl)cyclopropane-1-carboxamido)-N-(2,4-difluoro-3-(4-methoxybenzamido)phenyl)benzamide], the pest or weed control at 50 µg/cm2 in assay [1] (setting [5]) and in assay [2] (setting [6]) was 50 to 100% throughout.

Turning to `O=C(Nc1c(F)ccc(NC(=O)C(F)(F)C(F)F)c1F)c1cc(NC(=O)[C@H]2[C@H](c3ccc(Cl)c(Cl)c3)C2(Cl)Cl)ccc1Cl` [F1535, 2-Chloro-5-((1R,3R)-2,2-dichloro-3-(3,4-dichlorophenyl)cyclopropane-1-carboxamido)-N-(2,6-difluoro-3-(2,2,3,3-tetrafluoropropanamido)phenyl)benzamide], the pest or weed control at 50 µg/cm2 in assay [1] (setting [7]) and in assay [2] (setting [8]) was 50 to 100% each time.

As for `O=C(Nc1ccc(F)c(NC(=O)C(F)F)c1F)c1cc(NC(=O)[C@H]2[C@H](c3cc(Cl)c(Cl)c(Br)c3)C2(Cl)Cl)ccc1Cl` (relative stereo) [F1623, trans-5-(3-(3-Bromo-4,5-dichlorophenyl)-2,2-dichlorocyclopropane-1-carboxamido)-2-chloro-N-(3-(2,2-difluoroacetamido)-2,4-difluorophenyl)benzamide], the pest or weed control at 50 µg/cm2 in assay [1] (setting [7]) and in assay [2] (setting [8]) was 50 to 100% each time.

Consider `O=C(Nc1ccc(F)c(NC(=O)C(F)(F)F)c1F)c1cc(NC(=O)[C@H]2[C@H](c3ccc(F)c(Cl)c3)C2(Cl)Cl)cc(F)c1Cl` [F1291, 2-Chloro-5-((1R,3R)-2,2-dichloro-3-(3-chloro-4-fluorophenyl)cyclopropane-1-carboxamido)-N-(2,4-difluoro-3-(2,2,2-trifluoroacetamido)phenyl)-3-fluorobenzamide], for which the pest or weed control at 50 µg/cm2 in assay [1] (setting [5]) and in assay [2] (setting [6]) was 50 to 100% throughout.

Turning to `Cc1cc(NC(=O)[C@H]2[C@H](c3ccc(Cl)c(Cl)c3)C2(Cl)Cl)cc(C(=O)Nc2c(F)ccc(NC(=O)C(F)F)c2F)c1Cl` [F1429, 2-Chloro-5-((1R,3R)-2,2-dichloro-3-(3,4-dichlorophenyl)cyclopropane-1-carboxamido)-N-(3-(2,2-difluoroacetamido)-2,6-difluorophenyl)-3-methylbenzamide], the pest or weed control at 50 µg/cm2 in assay [1] (setting [7]) and in assay [2] (setting [8]) was 50 to 100% each time.

Consider `COC(=O)C(=O)Nc1c(F)ccc(NC(=O)c2cc(NC(=O)[C@H]3[C@H](c4ccc(F)c(C(F)(F)F)c4)C3(Cl)Cl)ccc2Cl)c1F` [F1753, Methyl 2-((3-(2-chloro-5-((1R,3R)-2,2-dichloro-3-(4-fluoro-3-(trifluoromethyl)phenyl)cyclopropane-1-carboxamido)benzamido)-2,6-difluorophenyl)amino)-2-oxoacetate], for which the pest or weed control at 50 µg/cm2 in assay [1] (setting [7]) and in assay [2] (setting [8]) was 50 to 100% throughout.

With `O=C(Nc1c(F)ccc([N+](=O)[O-])c1F)c1cc(NC(=O)[C@H]2[C@H](c3cc(Cl)c(Cl)c(Cl)c3)C2(Cl)Cl)cc(F)c1F` [F1765, 5-((1R,3R)-2,2-Dichloro-3-(3,4,5-trichlorophenyl)cyclopropane-1-carboxamido)-N-(2,6-difluoro-3-nitrophenyl)-2,3-difluorobenzamide], the pest or weed control at 50 µg/cm2 in assay [1] (setting [7]) and in assay [2] (setting [8]) was 50 to 100% throughout.

Regarding `O=C(Nc1ccc(F)c(NC(=O)C2CCCO2)c1F)c1cc(NC(=O)[C@H]2[C@H](c3ccc(Cl)c(Cl)c3)C2(Cl)Cl)ccc1Cl` (stereo partly drawn) [F1611, N-(3-(2-Chloro-5-((1R,3R)-2,2-dichloro-3-(3,4-dichlorophenyl)cyclopropane-1-carboxamido)benzamido)-2,6-difluorophenyl)tetrahydrofuran-2-carboxamide], the pest or weed control at 50 µg/cm2 in assay [1] (setting [7]) and in assay [2] (setting [8]) was 50 to 100% in each case.

Take `CCO[C@@H](C)C(=O)Nc1c(F)ccc(NC(=O)c2cc(NC(=O)[C@H]3[C@H](c4ccc(Cl)c(Cl)c4)C3(Cl)Cl)ccc2Cl)c1F` [F1733, 2-Chloro-5-((1R,3R)-2,2-dichloro-3-(3,4-dichlorophenyl)cyclopropane-1-carboxamido)-N-(3-((S)-2-ethoxypropanamido)-2,4-difluorophenyl)benzamide]: the pest or weed control at 50 µg/cm2 in assay [1] (setting [7]) and in assay [2] (setting [8]) was 50 to 100% throughout.

With `O=C(Nc1ccccc1)c1cc(NC(=O)[C@H]2[C@H](c3ccc(F)c(Cl)c3)C2(Cl)Cl)cc(F)c1F` (relative stereo) [F1207, trans-5-(2,2-Dichloro-3-(3-chloro-4-fluorophenyl)cyclopropane-1-carboxamido)-2,3-difluoro-N-phenylbenzamide], the pest or weed control at 50 µg/cm2 in assay [1] (setting [5]) and in assay [2] (setting [6]) was 50 to 100% in each case.

Turning to `O=C(Nc1c(F)ccc(NC(=O)c2cc(NC(=O)[C@H]3[C@H](c4ccc(F)c(C(F)(F)F)c4)C3(Cl)Cl)ccc2Cl)c1F)c1ccno1` [F1816, N-(3-(2-Chloro-5-((1R,3R)-2,2-dichloro-3-(4-fluoro-3-(trifluoromethyl)phenyl)cyclopropane-1-carboxamido)benzamido)-2,6-difluorophenyl)isoxazole-5-carboxamide], the pest or weed control at 50 µg/cm2 in assay [1] (setting [3]) and in assay [2] (setting [4]) was 50 to 100% each time.

For the compound `COC(=O)c1c(F)ccc(NC(=O)c2cc(NC(=O)[C@H]3[C@H](c4cc(Cl)cc(Cl)c4)C3(Cl)Cl)ccc2Cl)c1F` (relative stereo) [F1265, trans-Methyl 3-(2-chloro-5-(2,2-dichloro-3-(3,5-dichlorophenyl)cyclopropane-1-carboxamido)benzamido)-2,6-difluorobenzoate], the pest or weed control at 50 µg/cm2 in assay [1] (setting [5]) and in assay [2] (setting [6]) was 50 to 100% each time.

For `Nc1c(F)ccc(NC(=O)c2cc(NC(=O)[C@H]3[C@H](c4ccc(F)c(Cl)c4)C3(Cl)Cl)cc(F)c2Cl)c1F` (relative stereo) [F1156, trans-N-(3-Amino-2,4-difluorophenyl)-2-chloro-5-(2,2-dichloro-3-(3-chloro-4-fluorophenyl)cyclopropane-1-carboxamido)-3-fluorobenzamide], the pest or weed control at 50 µg/cm2 in assay [1] (setting [5]) and in assay [2] (setting [6]) was 50 to 100% each time.
